In patent US20060247165A1, “Methods and compositions for encapsulation of cells” (priority 2005, published 2006):
Residues, ends and D or L forms follow the SMILES beside them. *: point of attachment. Butanoyl(4-pyren-1-yl) = O=C(CCCc1ccc2ccc3cccc4ccc1c2c34)*; Palmitoyl = CCCCCCCCCCCCCCCC(=O)*

Experiments:
spinal cord = conditions: rat, in vivo
Procedure: Spinal Cord Injection Procedure. Rats were anesthetized using 45 mg/kg Pentobarbital (NEMBUTAL). A laminectomy was performed to expose spinal segment T13 and a stereotaxic micromanipulator (Kopf Instruments) with a Hamilton syringe attached to a 32 gauge needle was used to inject 6 μl at 333 nl/sec of isoosmotic glucose (vehicle) or peptide amphiphile into the spinal cord at T10 at a depth of 1.5 mm. The needle was kept inside the site of injection for 2 minutes after each injection in order to allow the IKVAV-PA to gel without disturbance.

injured spinal cord = assay: Stability of fluorescent peptide amphiphile gel in injured spinal cord; type: in vivo, mouse
From the text: Mouse spinal cord injuries, amphiphile injections and animal care. All animal care and surgical interventions were undertaken in strict accordance with the Public Health Service Policy on Humane Care and Use of Laboratory Animals, Guide for the Care and Use of Laboratory Animals (Institute of Laboratory Animal Resources, National Research Council, 1996). The Institutional Animal Care and Use Committee approved of all operative procedures. Female, adult 129 SvJ mice (10 weeks old; Jackson Labs, USA) were anesthetized using avertin intraperitoneally. A laminectomy was performed and the spinal cord was compressed dorsoventrally at T10 by the extradural application of a modified Kerr-Lougheed aneurysm clip for 1 min (FEJOTA mouse clip, University Health Network, Canada). The skin was sutured using AUTOCLIP (9 mm, Becton Dickinson). Post-operatively, animals were kept under a heat-lamp to maintain body temperature. […]
Peptide amphiphile solution or vehicle was injected 24 hours after the spinal cord injury using borosilicate glass capillary micropipettes (Sutter Instruments) (OD: 100 μm). […] The micropipette was manually inserted to a depth of 750 μm measured from the dorsal surface of the cord and 2.5 μl of the diluted amphiphile solution or vehicle was injected at the rate of 2.5 μl/min. […]

[1] = system: neural progenitor cells (NPCs); assay: Immunocytochemistry of NPC differentiation (β-tubulin III neurons, GFAP astrocytes) in 3D scaffolds; type: cell-based, mouse
Procedure: (§1) Cell Culture and In Vitro Encapsulation in IKVAV-PA nano-networks. Neural progenitor cells (NPCs) were cultured as previously described (See, e.g., Zhu et al., J. Neurosci. Res. 59, 312 (2000)). Briefly, the cortices of E13 mouse embryos were dissected and plated on un-treated petri dishes in DMEM/F12 media supplemented with bFGF (10 ng/ml). After four days, mechanically and enzymatically dissociated NPCs and undissociated neurospheres (e.g., undissociated NPC aggregates) were plated onto appropriate substrates (e.g., encapsulated in IKVAV-peptide amphiphile (PA), EQS-PA, or alginate gels, or cultured on laminin, poly-D-lysine, or IKVAV peptide coated cover slips). In all cases this was taken as 0 days in vitro. […]
(§2) Immunocytochemistry. […] Cell imaging was done with a high resolution Cool Snap camera attached to a Nikon TE-2000 fluorescence microscope interfaced with a PC running MetaView imaging software, or an Axiocam camera attached to a Zeiss Axiovert 200 fluorescence microscope interfaced with a PC running AxioVision imaging software.
(§3) Cell Counts. Randomly selected fields of view were imaged for different experimental conditions and cells counted using ImageJ (Scion Corporation) morphometric analysis software. […]

[2] = system: neural progenitor cells (NPCs); assay: NPC differentiation on two-dimensional coated substrates; type: cell-based, mouse; conditions: for differentiation into neurons on 2D substrate: cells plated for 1 day
Procedure: Two-dimensional cultures. For IKVAV peptide experiments, the same 12 mm glass coverslips used for the three-dimensional experiments were soaked in ethanol to encourage hydrophilicity, then spin-coated with 50 μL of a 1 mg/mL IKVAV peptide solution. For IKVAV-PA experiments, the coverslips were coated with PDL (e.g., to encourage adsorption) and subsequently with IKVAV-PA solution. In both cases, the cover slips were allowed to dry overnight and then washed three times with distilled water to remove weakly adherent material before the addition of cell suspension.
NPC differentiation on a two dimensional (2D) substrate coated with IKVAV-PA nanofibers was investigated.

[3] = system: neural progenitor cells (NPCs); assay: Cell body area and neurite length of neurons differentiated from NPCs; type: cell-based, mouse; conditions: after 1 day
Procedure: as §1, §2, §3

Molecule: CCCCCCCCCCCCCCCC(=O)N[C@@H](C)C(=O)N[C@@H](C)C(=O)N[C@@H](C)C(=O)N[C@@H](C)C(=O)NCC(=O)NCC(=O)NCC(=O)N[C@@H](CCC(=O)O)C(=O)N[C@H](C(=O)N[C@@H](CCCCN)C(=O)N[C@H](C(=O)N[C@@H](C)C(=O)N[C@H](C(=O)O)C(C)C)C(C)C)[C@@H](C)CC [IKVAV-PA] (Palmitoyl-AAAAGGGEIKVAV-OH)
- toxic effects after spinal cord injection (spinal cord): no toxic effects

Molecule: CC[C@H](C)[C@H](NC(=O)[C@H](CCC(=O)O)NC(=O)[C@H](C)NC(=O)[C@H](C)NC(=O)[C@H](C)NC(=O)[C@H](CC(C)C)NC(=O)[C@H](CO)NC(=O)[C@H](CC(C)C)NC(=O)[C@H](CO)NC(=O)CCCc1ccc2ccc3cccc4ccc1c2c34)C(=O)N[C@@H](CCCCN)C(=O)N[C@H](C(=O)N[C@@H](C)C(=O)N[C@H](C(=O)O)C(C)C)C(C)C [PA2] ({Butanoyl(4-pyren-1-yl)}-SLSLAAAEIKVAV-OH)
- presence of gel in injured cord (injured spinal cord; 5 weeks after injection, 1% solution in isotonic glucose): remnants could still be seen
- lifetime of the nanofiber scaffold in vivo (injured spinal cord; mouse, in vivo): on the order of weeks

Molecule: isolucine-lysine-valine-alanine-valine [IKVAV peptide]
- neuron differentiation on titration into EQS-PA scaffolds ([1]; increasing amounts of soluble peptide, 1 day): failed to induce the extent of neuron differentiation
- expression of β-tubulin III and/or GFAP on 2D coated substrate [2]: nearly nonquantifiable amounts
- differentiation into neurons on 2D substrate [2]: did not lead to the significant neuron differentiation

Molecule: laminin
- GFAP expression relative to cells cultured on nanofiber networks ([1]; coated substrates): significantly greater
- differentiation into neurons on 2D substrate [2]: did not lead to the significant neuron differentiation
- neurite development [3]: had not developed neurites
